{"source": "patent US7935853B2", "about": "“Micronized composition of a 2,4-disubstituted phenol derivative” (priority 2008, dated 2011)", "key": {"[1]": {"test_system": "arthritis induced by injection of type II collagen in the mouse", "experiment": "Model of arthritis induced by type II collagen in mice (CIA), hind paw plethysmometry", "assay_type": "in vivo", "details": "for Total hind paw volume (sum of both hind paws) / Oedema (difference in paw volume from basal values on day 21) in both hind paws: group mean n=10", "description": "The aim of the study was to determine the anti-inflammatory activity of the test item in a model of arthritis induced by injection of type II collagen in the mouse (CIA) and to compare the activity of two different formulations: micronized and non-micronized.\nInduction of arthritis was carried out by an initial exposure to type II bovine collagen by a subcutaneous injection at the base of the tail (induction phase).\nAfter a recovery time of 21 days, animals received a booster injection and approximately 4-5 weeks after the first injection there was an immune response with arthritis appearing in the extremities in the majority of the cases.\nFour experimental groups were used in the study with 10 animals in each group:\nGroup D: Positive control: FCA+vehicle B.I.D.\nGroup E: Micronized Test Item (Micro) 10 mg/kg B.I.D.\nGroup F: Non-Micronized test item 10 mg/kg B.I.D.\nGroup G: Reference item: Indomethacin 1 mg/kg Q.D.\nThe dose administered to groups E and F was 10 mg/kg.\nThe dose administered to group G was 1 mg/kg.\nThe doses of the test and reference items were expressed as mg/Kg of compound administered to each animal.\nThe test and reference items were administered in a solution of methylcellulose (0.25%: vehicle).\nThe positive control group received the vehicle (methylcellulose 0.25%).\nThe test and reference items, as well as the vehicle were administered orally at a dosing volume of 5 mls/kg.\nThe route of administration used was oral by use of an intragastric cannula.\nOn the day of start of the study each mouse was injected subcutaneously at the base of the tail with a first dose of 0.1 ml of an emulsion of bovine type II collagen (1 mg/mL) in Freund's Complete Adjuvant. Afterwards, on day 21 after this first injection, a second booster injection of type II collagen was administered to all animals. In this occasion the collagen suspension was done using Incomplete Freund's Adjuvant.\nCoinciding with the second booster injection on day 21 treatment with the test or reference items was started to the corresponding animals.\nTreatment with the test or reference items was carried out for 31 consecutive days (days 21-51 of the experimental period). Additionally, a recovery period was included at the end of the treatment period from day 52 to day 65 in order to evaluate the duration of any anti-inflammatory effect observed once dosing has been terminated.\nThe animals' hind paw volume was measured by plethysmometry one day before the 1st injection of collagen, again one day before the second (booster) collagen injection (basal values) and then daily after administration of test/reference item until the end of the study. During the recovery period at the end of the study, hind paw volume was measured three times per week.\nAdditionally the data was also represented graphically, depicting changes in total hind paw volume, as well as oedema (differences from basal (day 21) values)."}, "LTB4 synthesis": {"test_system": "LTB4 synthesis", "experiment": "First phase I trial, plasma concentration vs LTB4 synthesis inhibition (EMAX)", "assay_type": "in vivo", "details": "Homo sapiens; healthy volunteers, single oral dose, EMAX type relationship; read-out: IC50 (level of drug in plasma eliciting half of maximal LTB4 synthesis inhibition)", "from_the_text": "(§1) 2,4,6-triiodophenol is a potent leukotriene B4 (LTB4) synthesis inhibitor that is currently under clinical development. The exact mechanism of action of 2,4,6-triiodophenol is not completely understood but it is known that the inhibition of the enzyme 5-lipoxygenase is involved."}, "[2]": {"experiment": "First phase I clinical trial, single oral dose, safety and pharmacokinetics", "assay_type": "in vivo, human", "details": "healthy volunteers", "description": "as §1\nA preliminary exploratory analysis was done by simulating the typical pharmacokinetic profiles after single and multiple 240, 350, and 500 mg dose regimens based on the pharmacokinetic model and model parameter estimates obtained from the first phase I study, where 2,4,6-triiodophenol was given to healthy volunteers in a single dose ranging from 6 to 1200 mg."}, "[3]": {"details": "day 22, oral treatment days 21-51"}, "[4]": {"details": "day 23, oral treatment days 21-51"}, "[5]": {"details": "day 26, oral treatment days 21-51"}, "[6]": {"details": "day 27, oral treatment days 21-51"}, "[7]": {"details": "day 29, oral treatment days 21-51"}, "[8]": {"details": "day 30, oral treatment days 21-51"}, "[9]": {"details": "day 33, oral treatment days 21-51"}, "[10]": {"details": "day 34, oral treatment days 21-51"}, "[11]": {"details": "day 35, oral treatment days 21-51"}, "[12]": {"details": "day 36, oral treatment days 21-51"}, "[13]": {"details": "day 37, oral treatment days 21-51"}, "[14]": {"details": "day 40, oral treatment days 21-51"}, "[15]": {"details": "day 41, oral treatment days 21-51"}, "[16]": {"details": "day 42, oral treatment days 21-51"}, "[17]": {"details": "day 43, oral treatment days 21-51"}, "[18]": {"details": "day 44, oral treatment days 21-51"}, "[19]": {"details": "day 47, oral treatment days 21-51"}, "[20]": {"details": "day 48, oral treatment days 21-51"}, "[21]": {"details": "day 49, oral treatment days 21-51"}, "[22]": {"details": "day 50, oral treatment days 21-51"}, "[23]": {"details": "day 51, oral treatment days 21-51"}, "[24]": {"details": "day 54, recovery period after treatment days 21-51"}, "[25]": {"details": "day 56, recovery period after treatment days 21-51"}, "[26]": {"details": "day 58, recovery period after treatment days 21-51"}, "[27]": {"details": "day 61, recovery period after treatment days 21-51"}, "[28]": {"details": "day 63, recovery period after treatment days 21-51"}, "[29]": {"details": "day 65, recovery period after treatment days 21-51"}}}
{"smiles": "COc1ccc2c(c1)c(CC(=O)O)c(C)n2C(=O)c1ccc(Cl)cc1", "note": "[Indomethacin, reference compound]", "values": [{"measurement": "Total hind paw volume (sum of both hind paws)", "setting": "[1]; day 0, before collagen and treatment", "value": 0.175}, {"measurement": "Total hind paw volume (sum of both hind paws)", "setting": "[1]; day 20, basal, before treatment", "value": 0.227}, {"measurement": "Oedema (difference in paw volume from basal values on day 21) in both hind paws", "setting": "[1]; [3]", "value": 0.000}, {"measurement": "Total hind paw volume (sum of both hind paws)", "setting": "[1]; [3]", "value": 0.227}, {"measurement": "Oedema (difference in paw volume from basal values on day 21) in both hind paws", "setting": "[1]; [4]", "value": 0.000}, {"measurement": "Total hind paw volume (sum of both hind paws)", "setting": "[1]; [4]", "value": 0.227}, {"measurement": "Oedema (difference in paw volume from basal values on day 21) in both hind paws", "setting": "[1]; [5]", "value": 0.022}, {"measurement": "Total hind paw volume (sum of both hind paws)", "setting": "[1]; [5]", "value": 0.249}, {"measurement": "Oedema (difference in paw volume from basal values on day 21) in both hind paws", "setting": "[1]; [6]", "value": 0.001}, {"measurement": "Total hind paw volume (sum of both hind paws)", "setting": "[1]; [6]", "value": 0.228}, {"measurement": "Oedema (difference in paw volume from basal values on day 21) in both hind paws", "setting": "[1]; [7]", "value": 0.011}, {"measurement": "Total hind paw volume (sum of both hind paws)", "setting": "[1]; [7]", "value": 0.237}, {"measurement": "Oedema (difference in paw volume from basal values on day 21) in both hind paws", "setting": "[1]; [8]", "value": 0.012}, {"measurement": "Total hind paw volume (sum of both hind paws)", "setting": "[1]; [8]", "value": 0.239}, {"measurement": "Oedema (difference in paw volume from basal values on day 21) in both hind paws", "setting": "[1]; [9]", "value": 0.012}, {"measurement": "Total hind paw volume (sum of both hind paws)", "setting": "[1]; [9]", "value": 0.238}, {"measurement": "Oedema (difference in paw volume from basal values on day 21) in both hind paws", "setting": "[1]; [10]", "value": 0.013}, {"measurement": "Total hind paw volume (sum of both hind paws)", "setting": "[1]; [10]", "value": 0.240}, {"measurement": "Oedema (difference in paw volume from basal values on day 21) in both hind paws", "setting": "[1]; [11]", "value": 0.020}, {"measurement": "Total hind paw volume (sum of both hind paws)", "setting": "[1]; [11]", "value": 0.246}, {"measurement": "Oedema (difference in paw volume from basal values on day 21) in both hind paws", "setting": "[1]; [12]", "value": 0.012}, {"measurement": "Total hind paw volume (sum of both hind paws)", "setting": "[1]; [12]", "value": 0.239}, {"measurement": "Oedema (difference in paw volume from basal values on day 21) in both hind paws", "setting": "[1]; [13]", "value": "−0.005"}, {"measurement": "Total hind paw volume (sum of both hind paws)", "setting": "[1]; [13]", "value": 0.222}, {"measurement": "Oedema (difference in paw volume from basal values on day 21) in both hind paws", "setting": "[1]; [14]", "value": 0.028}, {"measurement": "Total hind paw volume (sum of both hind paws)", "setting": "[1]; [14]", "value": 0.255}, {"measurement": "Oedema (difference in paw volume from basal values on day 21) in both hind paws", "setting": "[1]; [15]", "value": 0.031}, {"measurement": "Total hind paw volume (sum of both hind paws)", "setting": "[1]; [15]", "value": 0.257}, {"measurement": "Oedema (difference in paw volume from basal values on day 21) in both hind paws", "setting": "[1]; [16]", "value": 0.021}, {"measurement": "Total hind paw volume (sum of both hind paws)", "setting": "[1]; [16]", "value": 0.247}, {"measurement": "Oedema (difference in paw volume from basal values on day 21) in both hind paws", "setting": "[1]; [17]", "value": 0.023}, {"measurement": "Total hind paw volume (sum of both hind paws)", "setting": "[1]; [17]", "value": 0.250}, {"measurement": "Oedema (difference in paw volume from basal values on day 21) in both hind paws", "setting": "[1]; [18]", "value": 0.011}, {"measurement": "Total hind paw volume (sum of both hind paws)", "setting": "[1]; [18]", "value": 0.238}, {"measurement": "Oedema (difference in paw volume from basal values on day 21) in both hind paws", "setting": "[1]; [19]", "value": 0.028}, {"measurement": "Total hind paw volume (sum of both hind paws)", "setting": "[1]; [19]", "value": 0.254}, {"measurement": "Oedema (difference in paw volume from basal values on day 21) in both hind paws", "setting": "[1]; [20]", "value": 0.025}, {"measurement": "Total hind paw volume (sum of both hind paws)", "setting": "[1]; [20]", "value": 0.252}, {"measurement": "Oedema (difference in paw volume from basal values on day 21) in both hind paws", "setting": "[1]; [21]", "value": 0.030}, {"measurement": "Total hind paw volume (sum of both hind paws)", "setting": "[1]; [21]", "value": 0.256}, {"measurement": "Oedema (difference in paw volume from basal values on day 21) in both hind paws", "setting": "[1]; [22]", "value": 0.030}, {"measurement": "Total hind paw volume (sum of both hind paws)", "setting": "[1]; [22]", "value": 0.256}, {"measurement": "Oedema (difference in paw volume from basal values on day 21) in both hind paws", "setting": "[1]; [23]", "value": 0.021}, {"measurement": "Total hind paw volume (sum of both hind paws)", "setting": "[1]; [23]", "value": 0.248}, {"measurement": "Oedema (difference in paw volume from basal values on day 21) in both hind paws", "setting": "[1]; [24]", "value": 0.040}, {"measurement": "Total hind paw volume (sum of both hind paws)", "setting": "[1]; [24]", "value": 0.266}, {"measurement": "Oedema (difference in paw volume from basal values on day 21) in both hind paws", "setting": "[1]; [25]", "value": 0.052}, {"measurement": "Total hind paw volume (sum of both hind paws)", "setting": "[1]; [25]", "value": 0.279}, {"measurement": "Oedema (difference in paw volume from basal values on day 21) in both hind paws", "setting": "[1]; [26]", "value": 0.058}, {"measurement": "Total hind paw volume (sum of both hind paws)", "setting": "[1]; [26]", "value": 0.285}, {"measurement": "Oedema (difference in paw volume from basal values on day 21) in both hind paws", "setting": "[1]; [27]", "value": 0.058}, {"measurement": "Total hind paw volume (sum of both hind paws)", "setting": "[1]; [27]", "value": 0.28}, {"measurement": "Oedema (difference in paw volume from basal values on day 21) in both hind paws", "setting": "[1]; [28]", "value": 0.064}, {"measurement": "Total hind paw volume (sum of both hind paws)", "setting": "[1]; [28]", "value": 0.29}, {"measurement": "Oedema (difference in paw volume from basal values on day 21) in both hind paws", "setting": "[1]; [29]", "value": 0.076}, {"measurement": "Total hind paw volume (sum of both hind paws)", "setting": "[1]; [29]", "value": 0.30}, {"measurement": "effect on hind paw oedema (in words)", "setting": "[1]; test item 10 mg/kg BID, Indomethacin 1 mg/kg Q.D, oral", "value": "significant anti-inflammatory response"}]}
{"smiles": "Oc1c(I)cc(I)cc1I", "note": "[2,4,6-triiodophenol]", "values": [{"measurement": "IC50", "setting": "LTB4 synthesis", "value": 16.6, "unit": "µg/mL"}, {"measurement": "safety and tolerability", "setting": "[2]; single oral dose from 6 mg to 1200 mg", "value": "very good safety and tolerability profiles"}, {"measurement": "pharmacokinetic behavior", "setting": "[2]; single oral dose, at least in the range from 240 to 700 mg", "value": "predictable and dose-independent"}]}
